From patent US20220089609A1, “SUBSTITUTED QUINAZOLINONE DERIVATIVES AND THEIR USE AS POSITIVE ALLOSTERIC MODULATORS OF MGLUR4” (DOMAIN THERAPEUTICS, priority 2018, published 2022)
pEC50: −log10 of the molar value. Several values for one entry are separate records, joined by “and”; a condition that tells them apart may be missing. Equal entries are not always repeated. Structures can show the parent of a compound that is named as a salt.

target: T1, human mGluR4 (hmGluR4) (Homo sapiens, UniProt Q14833); test: Calcium assay EC50 determination, positive allosteric modulator activity on hmGluR4 transiently over-expressed in HEK-293 cells; assay type: cell-based; conditions: PAM mode with EC20 glutamate; hmGluR4 in HEK-293 cells; intracellular calcium (Fluo4AM); read-out: mGluR4 positive allosteric modulator activity, half maximal effective concentration (EC50)
T1 construct: expressed in transfected cells; host or cells: HEK-293 cells, transient co-transfection by electroporation
Procedure: Compounds are tested successively for their agonist and positive allosteric modulator activities on human mGluR4 (hmGluR4) transiently over-expressed in HEK-293 cells. Compounds exert agonist activity if, by themselves in absence of glutamate, they are able to activate hmGluR4; and they exert positive allosteric modulator activity if they increase the action of glutamate.
HEK-293 cells are maintained in Modified Eagle's Medium supplemented with 10% Foetal Calf Serum, 1% Penicillin/Streptomycin and 1% non-essential amino acids at 37° C./5% CO2.
Cells are co-transfected by electroporation with four DNA plasmids encoding hmGluR4, a chimeric G protein allowing redirection of the activation signal to intracellular calcium pathway, and glutamate transporters to decrease extracellular glutamate concentration so as to limit receptor desensitization. After transfection, cells are cultured for 24 h at 37° C./5% CO2.
Calcium Assay EC50 determination
Receptor activity is detected by changes in intracellular calcium measured using the fluorescent Ca^2+ sensitive dye, Fluo4AM (Molecular Probes).
On the day of the assay, culture medium is aspirated and replaced during 3 hours by medium without serum supplemented with 1% Glutamax, 1% Penicillin/Streptomycin and 1% non-essential amino acids. Then, cells are washed with freshly prepared buffer B (HBSS 1× (PAA), Hepes 20 mM, MgSO4-7H2O 1 mM, Na2CO3 3.3 mM, CaCl2-2H2O 1.3 mM, 0.1% BSA, Probenecid 2.5 mM) and loaded at 37° C. in 5% CO2 for 1.5 hours with buffer B containing 1 μM Fluo4AM, 0.1 mg/mL Pluronic Acid, 7 μg/mL Glutamate Pyruvate Transaminase and 2 mM sodium pyruvate. Afterwards cells are washed twice with buffer B. Then cells are detached using StemPro Accutase (Fisher Scientific), resuspended in buffer B and seeded in 384 well plate at a density of 30,000 cells per well. Addition of compounds and intracellular Ca^2+ measurements (excitation 485 nm, emission 525 nm) are performed by the fluorescence microplate reader FLIP^Tetra (Molecular Devices).
Agonist and positive allosteric modulator activities of compounds are consecutively evaluated on the same cell plate. Agonist activity is first tested during 10 minutes with the addition of compound alone on the cells. Then, cells are stimulated by an EC20 glutamate concentration and fluorescence is recorded for additional 3 minutes. EC20 glutamate concentration is the concentration giving 20% of the maximal glutamate response. Agonist or positive allosteric modulator activity(ies) are evaluated in comparison to basal signals evoked by buffer B or EC20 glutamate alone, respectively.

T1 sequence (Q14833 33-912): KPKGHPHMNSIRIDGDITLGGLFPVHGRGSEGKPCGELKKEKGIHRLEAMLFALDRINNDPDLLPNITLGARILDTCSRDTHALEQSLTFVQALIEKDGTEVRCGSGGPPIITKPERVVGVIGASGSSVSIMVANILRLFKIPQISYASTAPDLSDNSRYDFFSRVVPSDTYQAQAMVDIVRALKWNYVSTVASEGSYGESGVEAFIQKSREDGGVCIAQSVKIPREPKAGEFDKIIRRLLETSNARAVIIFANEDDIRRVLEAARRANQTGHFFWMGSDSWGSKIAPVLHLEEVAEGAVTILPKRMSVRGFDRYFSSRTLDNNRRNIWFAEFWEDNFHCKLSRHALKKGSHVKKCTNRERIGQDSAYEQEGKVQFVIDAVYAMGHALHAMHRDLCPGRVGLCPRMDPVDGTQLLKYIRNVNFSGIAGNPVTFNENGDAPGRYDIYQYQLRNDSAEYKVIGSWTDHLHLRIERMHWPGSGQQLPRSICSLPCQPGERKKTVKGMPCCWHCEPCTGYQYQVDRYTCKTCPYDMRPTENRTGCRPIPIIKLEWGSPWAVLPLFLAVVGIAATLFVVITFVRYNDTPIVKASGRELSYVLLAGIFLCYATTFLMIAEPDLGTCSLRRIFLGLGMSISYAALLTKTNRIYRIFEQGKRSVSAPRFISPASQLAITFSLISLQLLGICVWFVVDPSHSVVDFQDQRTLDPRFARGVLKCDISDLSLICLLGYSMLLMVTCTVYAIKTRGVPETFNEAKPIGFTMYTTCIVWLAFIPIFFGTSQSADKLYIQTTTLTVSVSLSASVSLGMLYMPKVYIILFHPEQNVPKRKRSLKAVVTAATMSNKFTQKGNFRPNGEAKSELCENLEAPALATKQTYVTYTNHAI

SMILES	pEC50
O=c1[nH]c(-c2cc3ccsc3cn2)nc2cc(C(F)(F)F)c(OCCCc3ccncc3)cc12 [Compound 70, 6-(3-Pyridin-4-yl-propoxy)-2-thieno[2,3-c]pyridin-5-yl-7-trifluoromethyl-3H-quinazolin-4-one hydrochloride]	5.00 to 6.00
O=c1[nH]c(-c2cc3ccsc3cn2)nc2ccc(OCCCc3ccncc3)c(Cl)c12 [Compound 71, 5-Chloro-6-(3-pyridin-4-yl-propoxy)-2-thieno[2,3-c]pyridin-5-yl-3H-quinazolin-4-one hydrochloride]	< 5.00
CCc1ccnc(-c2nc3ccc(OCCCc4ccncc4)cc3c(=O)[nH]2)c1 [Compound 16, 2-(4-ethyl-2-pyridyl)-6-[3-(4-pyridyl)propoxy]-3H-quinazolin-4-one dihydrochloride]	5.00 to 6.00
O=c1[nH]c(-c2cc(C(F)(F)F)c(Cl)cn2)nc2ccc(OCCCc3ccncc3)cc12 [Compound 14, 2-[5-chloro-4-(trifluoromethyl)-2-pyridyl]-6-[3-(4-pyridyl)propoxy]-3H-quinazolin-4-one hydrochloride]	5.00 to 6.00
CC(=O)N1CCC(Oc2ccc3nc(-c4cc5ccsc5cn4)[nH]c(=O)c3c2)C1 (stereo not shown) [Compound 51, 6-(1-Acetyl-pyrrolidin-3-yloxy)-2-thieno[2,3-c]pyridin-5-yl-3H-quinazolin-4-one]	6.00 to 7.00
Cc1cc(OCCCc2ccncc2)cc2c(=O)[nH]c(-c3cc(C(F)(F)F)ccn3)nc12 [Compound 101, 8-Methyl-6-(3-pyridin-4-yl-propoxy)-2-(4-trifluoromethyl-pyridin-2-yl)-3H-quinazolin-4-one hydrochloride]	6.00 to 7.00
Cc1cc(OCCC2CCOCC2)cc2c(=O)[nH]c(-c3cc4ccsc4cn3)nc12 [Compound 79, 8-Methyl-6-[2-(tetrahydro-pyran-4-yl)-ethoxy]-2-thieno[2,3-c]pyridin-5-yl-3H-quinazolin-4-one]	6.00 to 7.00
O=c1[nH]c(-c2cc(Cl)ccn2)nc2ccc(OCCCc3ccncc3)cc12 [Compound 15, 2-(4-chloro-2-pyridyl)-6-[3-(4-pyridyl)propoxy]-3H-quinazolin-4-one hydrochloride]	6.00 to 7.00 and > 6.00
O=c1[nH]c(-c2cc(C(F)(F)F)ccn2)nc2ncc(OCCCc3ccncc3)cc12 [Compound 68, 6-(3-Pyridin-4-yl-propoxy)-2-(4-trifluoromethyl-pyridin-2-yl)-3H-pyrido[2,3-d]pyrimidin-4-one hydrochloride]	< 5.00
CC(=O)N1CCC(c2ccc3nc(-c4cc5ccsc5cn4)[nH]c(=O)c3c2)CC1 [Compound 57, 6-(1-acetyl-piperidin-4-yl)-2-thieno[2,3-c]pyridin-5-yl-3H-quinazolin-4-one]	6.00 to 7.00
Cc1nc(-c2nc3ccc(OCCCc4ccncc4)cc3c(=O)[nH]2)co1 [Compound 22, 2-(2-Methyl-oxazol-4-yl)-6-(3-pyridin-4-yl-propoxy)-3H-quinazolin-4-one hydrochloride]	5.00 to 6.00
CCC(=O)N1CCN(c2ccc3nc(-c4cc(C(F)(F)F)ccn4)[nH]c(=O)c3c2)CC1 [Compound 54, 6-(4-Propionyl-piperazin-1-yl)-2-(4-trifluoromethyl-pyridin-2-yl)-3H-quinazolin-4-one]	5.00 to 6.00
CC(C)(C)OC(=O)N1CCC(Oc2ccc3nc(-c4ccccn4)[nH]c(=O)c3c2)CC1 [Compound 39, 4-(4-Oxo-2-pyridin-2-yl-3,4-dihydro-quinazolin-6-yloxy)-piperidine-1-carboxylic acid tert-butyl ester]	5.00 to 6.00
O=c1[nH]c(-c2cc3ccsc3cn2)nc2c(C3CC3)cc(OCCCc3ccncc3)cc12 [Compound 73, 8-Cyclopropyl-6-(3-pyridin-4-yl-propoxy)-2-thieno[2,3-c]pyridin-5-yl-3H-quinazolin-4-one hydrochloride]	6.00 to 7.00
O=c1[nH]c(-c2cc3ccsc3cn2)nc2c(F)cc(OCCCc3ccncc3)cc12 [Compound 75, 8-Fluoro-6-(3-pyridin-4-yl-propoxy)-2-thieno[2,3-c]pyridin-5-yl-3H-quinazolin-4-one]	6.00 to 7.00

Now from value to compound:

pEC50	SMILES
6.00 to 7.00	COCC1CCN(Cc2cc(C)c3nc(-c4cc5sccc5cn4)[nH]c(=O)c3c2)CC1 [Compound 157, 6-((4-(Methoxymethyl)piperidin-1-yl)methyl)-8-methyl-2-(thieno[3,2-c]pyridin-6-yl)quinazolin-4(3H)-one hydrochloride]
≥ 7.00	Cc1cc(N2CCC3(CCOCC3)CC2)cc2c(=O)[nH]c(-c3cc(C(F)(F)F)ccn3)nc12 [Compound 105, 8-Methyl-6-(3-oxa-9-aza-spiro[5.5]undec-9-yl)-2-(4-trifluoromethyl-pyridin-2-yl)-3H-quinazolin-4-one]
6.00 to 7.00	O=c1[nH]c(-c2cc(C(F)(F)F)ccn2)nc2cnc(OCCCc3ccncc3)cc12 [Compound 69, 6-(3-Pyridin-4-yl-propoxy)-2-(4-trifluoromethyl-pyridin-2-yl)-3H-pyrido[3,4-d]pyrimidin-4-one hydrochloride]
6.00 to 7.00	O=c1[nH]c(-c2cc(C(F)(F)F)ccn2)nc2c(Cl)cc(CCN3CCOCC3)cc12 [Compound 154, 8-Chloro-6-(2-morpholinoethyl)-2-(4-(trifluoromethyl)pyridin-2-yl)quinazolin-4(3H)-one hydrochloride]
6.00 to 7.00	O=c1[nH]c(-c2cc(C3CC3)ccn2)nc2ccc(OCCCc3ccncc3)cc12 [Compound 19, 2-(4-cyclopropyl-2-pyridyl)-6-[3-(4-pyridyl)propoxy]-3H-quinazolin-4-one dihydrochioride]
6.00 to 7.00	Cc1cccc(-c2nc3ccc(OCCCc4ccncc4)cc3c(=O)[nH]2)n1 [Compound 12, 2-(6-methyl-2-pyridyl)-6-[3-(4-pyridyl)propoxy]-3H-quinazolin-4-one dihydrochloride]
6.00 to 7.00	O=c1[nH]c(-c2cc3ccsc3cn2)nc2ccc(OCCCc3ccncc3F)cc12 [Compound 59, 6-[3-(3-Fluoro-pyridin-4-yl)-propoxy]-2-thieno[2,3-c]pyridin-5-yl-3H-quinazolin-4-one]
6.00 to 7.00	CCC(=O)N1CC(Oc2ccc3nc(-c4cc5ccsc5cn4)[nH]c(=O)c3c2)C1 [Compound 30, 6-(1-Propionyl-azetidin-3-yloxy)-2-thieno[2,3-c]pyridin-5-yl-3H-quinazolin-4-one]
≥ 7.00	Cc1cc(OC2CCC(=O)N(C)C2)cc2c(=O)[nH]c(-c3cc4ccsc4cn3)nc12 (single isomer, unassigned) [Compound 81-E1, (R or S)-8-Methyl-6-((1-methyl-6-oxopiperidin-3-yl)oxy)-2-(thieno[2,3-c]pyridin-5-yl)quinazolin-4(3H)-one]
≥ 7.00	Cc1cc(CN2CCN(C)C(=O)C2)cc2c(=O)[nH]c(-c3cc4sccc4cn3)nc12 [Compound 147, 8-Methyl-6-[(4-methyl-3-oxo-piperazin-1-yl)methyl]-2-thieno[3,2-c]pyridin-6-yl-3H-quinazolin-4-one hydrochloride]
≥ 7.00	Cc1cc(OCC2CCOCC2)cc2c(=O)[nH]c(-c3cc4ccsc4cn3)nc12 [Compound 76, 8-Methyl-6-(tetrahydro-pyran-4-ylmethoxy)-2-thieno[2,3-c]pyridin-5-yl-3H-quinazolin-4-one]
≥ 7.00	CC(=O)N1CCCC(CCOc2cc(C)c3nc(-c4cc5ccsc5cn4)[nH]c(=O)c3c2)C1 (stereo not shown) [Compound 96, 6-[2-(1-Acetyl-piperidin-3-yl)-ethoxy]-8-methyl-2-thieno[2,3-c]pyridin-5-yl-3H-quinazolin-4-one]
≥ 7.00	Cc1cc(N2CC3(CCOC3)C2)cc2c(=O)[nH]c(-c3cc4ccsc4cn3)nc12 [Compound 90, 8-Methyl-6-(6-oxa-2-aza-spiro[3.4]oct-2-yl)-2-thieno[2,3-c]pyridin-5-yl-3H-quinazolin-4-one]

same assay, conditions: up to 100 μM

PAM activity on mGluR4	SMILES
no PAM activity	Cn1c(-c2cc3sccc3cn2)nc2ccc(OCCCc3ccncc3)cc2c1=O [Compound 38, 3-Methyl-6-(3-pyridin-4-yl-propoxy)-2-thieno[3,2-c]pyridin-6-yl-quinazolin-4-one]
no PAM activity	Cl.O=c1[nH]c(-c2cccc(Cl)c2)nc2ccc(OCCCc3ccncc3)cc12 [Compound 20, 2-(3-chlorophenyl)-6-[3-(4-pyridyl)propoxy]-3H-quinazolin-4-one hydrochloride]
no PAM activity	Cl.O=c1[nH]c(-c2cccnc2)nc2ccc(OCCCc3ccncc3)cc12 [Compound 6, 2-Pyridin-3-yl-6-(3-pyridin-4-yl-propoxy)-3H-quinazolin-4-one hydrochloride]
